Experimental findings from US20230226070A1, “TREATMENT OF THROMBOSIS AND ASSOCIATED DISORDERS WITH AN ANTI-PLATELET AGENT” (THE HEART RESEARCH INSTITUTE LTD, priority 2020, published 2023) are described below.

The test system of series [1] is occlusive thrombus in the mouse carotid artery. Briefly: carotid artery thrombosis model: occlusive thrombus formation induced by electrolytic injury, recanalisation classified from carotid blood flow. It is filed as in vivo, C57BL/6 male mice. Particulars: for thrombolysis, recanalisation and vessel reocclusion (in words): dual therapy: antiplatelet agent 2.5 mg/kg together with rtPA 10 mg/kg; for comparative anti-platelet efficacy in vivo, TGX221 versus AZD6482: each 2.5 mg/kg combined with rtPA 10 mg/kg; for lysis of 4.5 hours aged clots (in words): treatment 270 min after occlusion, triple therapy versus rtPA/argatroban dual therapy; for recanalisation of older (aged) clots (in words): triple therapy: rtPA + argatroban + antiplatelet agent (2.5 mg/kg, 2x bolus), treatment 15, 120 or 270 min after occlusion.

Series [2] relates to ischaemic stroke after carotid artery thrombotic occlusion and contralateral stenosis. The class given is in vivo.
For the next series, the system named is tail bleeding. Briefly: 3 mm tail lop (tail transection) bleeding assay.
Another series deals with mouse blood/platelets. Briefly: ADP-induced aggregation in PPACK-anticoagulated PRP (Integrilin dose-response). It is filed as cell-based. The text has this:
Data are presented as mean±SEM.

Entries after “also recorded” stand apart in the source; their conditions may differ. Where a SMILES comes first, the peptide text is derived from it. Bridges are numbered along the chain shown (N, C = ends). [ ]: non-standard residue; d: D form. hArg = N=C(N)NCCCC[C@H](N)C(=O)O; Mpa = O=C(O)CCS

Description for tail bleeding: Bleeding was assessed using a 3 mm tail lop assay. Drug treatments (bolus) were administered 10 min before the start of tail bleeding. When a 30 min infusion was used, the tail bleeding experiment began as soon as the infusion finished. Following drug administration, a 3 mm long section of the tail tip was removed using a scalpel blade and the tail tip immersed in warmed saline. Bleeding was monitored until cessation and the time recorded. […] If the tail did re-bleed, length of time of rebleeding was also recorded. The experiment was ended when bleeding had ceased for at least 2 min, or at 30 min post-tail tip removal. Haemoglobin was quantified using 2 methods [(i, ii) using Abs 575 nm; (iii) using a colorimetric haemoglobin assay, as per the manufacturer's instructions (Sigma Aldrich, Haemoglobin Assay Kit MAK115)]. The treatment dosing regimens were as follows: rtPA (10 mg/kg: 1 mg/kg bolus, 9 mg/kg infusion over 30 min); Integrilin (1-10 mg/kg, bolus every 15 minutes); TGX221 (2.5 mg/kg; single bolus 15 minutes prior to lop); Arg—argatroban (80 ug/kg bolus; 40 ug/kg/min infusion 60). […] Data are presented as mean±SEM.
In addition, 15 minutes following commencement of treatment administration, tail transection (3 mm) was performed, and the tail tip immersed in warm (37° C.) saline to allow for blood collection from the tail (as described under “Methods”). Flow of blood was assessed over 30 minutes and any periods of blood flow cessation and rebleeding noted. Blood monitoring and collection was ceased at 30 minutes after lop, for all mice. Haemoglobin content was assessed in the collected sample using a colorimetric haemoglobin assay, as per the manufacturer's instructions (Sigma Aldrich, Haemoglobin Assay Kit MAK115). Data was analysed using a one-way ANOVA relative to Vehicle. […] The bar graph depicts mean±SD, where ***P<0.0005, ^nsP>0.05.

As to `Cc1cc(C(C)Nc2ccccc2)c2nc(N3CCOCC3)cc(=O)n2c1` (racemic) [TGX221, (±)-7-methyl-2-morpholin-4-yl-9-(1-phenylaminoethyl)-pyrido[1,2-a]pyrimidin-4-one], the “thrombolysis, recanalisation and vessel reocclusion (in words)” value in series [1] (15 min after occlusion) was “improves thrombolysis and vessel reocclusion over and above that achieved with rtPA alone; also recorded: effectively enhancing recanalisation”. Also, in series [1], the “comparative anti-platelet efficacy in vivo, TGX221 versus AZD6482” value is “equipotent”; the “lysis of 4.5 hours aged clots (in words)” value is “benefit”; the “recanalisation of older (aged) clots (in words)” value is “improving recanalization of older clots”. Moreover, in series [1] (triple therapy: TGX221 2.5 mg/kg + argatroban + rtPA 10 mg/kg, 15 min after occlusion), the “recanalisation and reocclusion (in words)” value was “improving recanalisation as well as reducing reocclusion”. Moreover, the “vessel (carotid) recanalisation (in words)” value in series [2] (triple therapy: TGX221 2.5 mg/kg + argatroban + rtPA 10 mg/kg, 5 min after stroke onset) is “improved blood flow (recanalisation)”. Besides, the “cerebral perfusion (in words)” value in series [2] (triple therapy: TGX221 + argatroban + rtPA) was “improved cerebral reperfusion”. For the same compound, the “cerebral infarct (TTC staining, in words)” value in series [2] (triple therapy: TGX221 + argatroban + rtPA, 24 hours) was “reduced cerebral infarct”. For the same compound, in the series on tail bleeding (administered alone (TGX221 2.5 mg/kg; Integrilin 3 mg/kg and above)), the “tail bleeding (in words)” value is “does not Increase Tail Bleeding”. For the same compound, the “tail bleeding (in words)” value with tail bleeding (in combination with rt-PA (10 mg/kg; for TGX221 also up to 20 mg/kg)) is on record as “promising bleeding profile”.

Turning to `Cc1cc([C@@H](C)Nc2ccccc2C(=O)O)c2nc(N3CCOCC3)cc(=O)n2c1` [AZD6482, (−)-2-({1R-[7-methyl-2-(morpholin-4-yl)-4-oxo-pyrido[1,2-a]pyrimidin-9-yl]ethyl}amino)benzoic acid], the “thrombolysis, recanalisation and vessel reocclusion (in words)” value in series [1] (15 min after occlusion) was “improves thrombolysis and vessel reocclusion over and above that achieved with rtPA alone; also recorded: effectively enhancing recanalisation”. Besides, in series [1], the “comparative anti-platelet efficacy in vivo, TGX221 versus AZD6482” value is “equipotent”; the “lysis of 4.5 hours aged clots (in words)” value is given as “benefit”; the “recanalisation of older (aged) clots (in words)” value was “improving recanalization of older clots”.

Turning to `N=C(N)NCCCC[C@@H]1NC(=O)CCSSC[C@@H](C(N)=O)NC(=O)[C@@H]2CCCN2C(=O)[C@H](Cc2c[nH]c3ccccc23)NC(=O)[C@H](CC(=O)O)NC(=O)CNC1=O` [Integrilin, Eptifibatide, reference compound] ([Mpa][hArg]GDWPC-NH2; disulfide 1-7), the “inhibition of ADP-induced aggregation” value in the series on mouse blood/platelets (3.0 mg/kg ('Stroke' dose)) is “approximately 60%”; in the series on mouse blood/platelets (4.0 mg/kg ('AMI' dose)), roughly 80%. Moreover, the “stable recanalisation of the occluded carotid artery (in words)” value in series [2] (integrilin 4 mg/kg every 15 min with rtPA 10 mg/kg and argatroban) is listed as “enhances stable recanalisation”. Besides, the “tail bleeding / safety (in words)” value with tail bleeding (triple therapy with rt-PA 10 mg/kg and argatroban) is reported as “accompanied by an increase in bleeding”.

In the case of “rtPA: recombinant tissue plasminogen activator, thrombolytic agent, purchased from Boehringer Ingelheim”, in series [1] (rt-PA monotherapy 10 mg/kg, 15 min after occlusion, 60 min monitoring), the “recanalisation category / re-thrombosis (in words)” value is “induces transient recanalisation”. Besides, in series [1] (rtPA 10 mg/kg i.v. alone, 15 min after occlusion, blood flow monitored 60 min), the “clot lysis and recanalisation of the carotid, share of vessels” value is “approximately 25%”.
